Measurements from PMC11997881, “Comprehensive Characterization of Bruton’s Tyrosine Kinase Inhibitor Specificity, Potency, and Biological Effects: Insights into Covalent and Noncovalent Mechanistic Signatures” (ACS Pharmacology & Translational Science, 2025).
Entries after “also recorded” stand apart in the source; their conditions may differ. Where two headings read alike, the source gives them in different places.

Legend:
[1] = target: T1, wild-type BTK (Homo sapiens, UniProt Q06187); assay: KdELECT competition binding, wild-type BTK
T1 construct: made in house; host or cells: transiently transfected HEK293 cells (unpurified extract)
T1 sequence (Q06187 whole entry): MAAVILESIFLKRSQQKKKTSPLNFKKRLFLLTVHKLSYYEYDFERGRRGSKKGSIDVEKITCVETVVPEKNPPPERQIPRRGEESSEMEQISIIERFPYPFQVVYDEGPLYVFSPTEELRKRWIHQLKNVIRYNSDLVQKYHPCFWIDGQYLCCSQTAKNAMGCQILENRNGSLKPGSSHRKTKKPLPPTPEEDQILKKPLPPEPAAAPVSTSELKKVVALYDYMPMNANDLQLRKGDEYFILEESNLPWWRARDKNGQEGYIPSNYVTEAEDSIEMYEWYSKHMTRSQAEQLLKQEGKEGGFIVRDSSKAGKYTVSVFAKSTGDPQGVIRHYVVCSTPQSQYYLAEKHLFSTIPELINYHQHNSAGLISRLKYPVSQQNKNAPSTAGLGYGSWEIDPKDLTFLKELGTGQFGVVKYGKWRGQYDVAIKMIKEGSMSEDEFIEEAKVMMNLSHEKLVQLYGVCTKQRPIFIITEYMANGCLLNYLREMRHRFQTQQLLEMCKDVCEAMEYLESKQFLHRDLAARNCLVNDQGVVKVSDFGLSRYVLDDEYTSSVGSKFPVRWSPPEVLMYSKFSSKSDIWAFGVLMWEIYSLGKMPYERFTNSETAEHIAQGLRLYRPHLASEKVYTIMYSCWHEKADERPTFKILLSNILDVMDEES
Description: Using Eurofins Discovery’s KdELECT Kinase Assay Panel (San Diego, CA), we measured the ATP-independent in vitro binding affinity of the aforementioned BTK inhibitors to wild-type BTK.
(§1) Protein extracts were harvested in M-PER extraction buffer (Pierce Biotechnology, Rockford, IL) supplemented with 150 mM NaCl, 10 mM Dithiothreitol (DTT), Protease Inhibitor Cocktail Complete (Roche Diagnostics GmbH, Mannheim, Germany), and Phosphatase Inhibitor Cocktail Set II (Merck KGaA, Darmstadt, Germany) following the manufacturer’s guidelines. The fusion protein was labeled with a DNA tag containing the NFκB binding site fused to an amplicon for qPCR readout, which was added directly to the expression extract.
(§2) Kds were calculated using a standard dose–response curve fitting of the data using the Hill equation: Response = Background + (Signal – Background)/(1 + (Kd ^Hill Slope/Dose^Hill Slope). The Hill Slope was set to −1. A nonlinear least-square fit using the Levenberg–Marquardt algorithm was employed for curve fitting.

[2] = target: T2, BTK C481S (Homo sapiens, UniProt Q06187, C481S); assay: KdELECT competition binding, mutant BTK C481S
T2 construct: made in house; host or cells: transiently transfected HEK293 cells (unpurified extract)
T2 sequence (Q06187 whole entry C481S): as the sequence (Q06187 whole entry) above, with C481S counted along it
Description: as §1, §2

[3] = target: T3, BTK (Homo sapiens, UniProt Q06187); assay: scanMAX binding POC, BTK; conditions: 1 μM; zero POC = competition comparable to positive control
T3 construct: host or cells: transiently transfected HEK293 cells
T3 sequence (Q06187 whole entry): as the sequence (Q06187 whole entry) above
Text: (§3) Comprehensive Characterization of Bruton’s Tyrosine Kinase Inhibitor Specificity, Potency, and
(§4) Biological Effects: Insights into Covalent and Non-Covalent Mechanistic Signatures
(§5) Antonia C. Darragh1, Andrew M. Hanna1, Justin H. Lipner2, Alastair J. King2, Nicole B. Servant1, Mirza Jahic1*
(§6) *To whom correspondence should be addressed: Mirza Jahic, e-mail address: Mirza.Jahic@discovery.eurofinsus.com
(§7) Supporting Table S1. Comparison of BTK inhibitor specificity to TEC family members. TEC family members are
(§8) Burton’s tyrosine kinase (BTK), tyrosine kinase expressed in hepatocellular carcinoma (TEC), bone marrow-
(§9) expressed kinase (BMX/ETK), and T cell-expressed kinase (TXK/RLK), and interleukin-2-inducible T cell kinase
(§10) A zero POC signifies that the compound

[4] = target: T4, BMX (Homo sapiens, UniProt P51813); assay: scanMAX binding POC, BMX; conditions: 1 μM
T4 sequence (P51813 1-675): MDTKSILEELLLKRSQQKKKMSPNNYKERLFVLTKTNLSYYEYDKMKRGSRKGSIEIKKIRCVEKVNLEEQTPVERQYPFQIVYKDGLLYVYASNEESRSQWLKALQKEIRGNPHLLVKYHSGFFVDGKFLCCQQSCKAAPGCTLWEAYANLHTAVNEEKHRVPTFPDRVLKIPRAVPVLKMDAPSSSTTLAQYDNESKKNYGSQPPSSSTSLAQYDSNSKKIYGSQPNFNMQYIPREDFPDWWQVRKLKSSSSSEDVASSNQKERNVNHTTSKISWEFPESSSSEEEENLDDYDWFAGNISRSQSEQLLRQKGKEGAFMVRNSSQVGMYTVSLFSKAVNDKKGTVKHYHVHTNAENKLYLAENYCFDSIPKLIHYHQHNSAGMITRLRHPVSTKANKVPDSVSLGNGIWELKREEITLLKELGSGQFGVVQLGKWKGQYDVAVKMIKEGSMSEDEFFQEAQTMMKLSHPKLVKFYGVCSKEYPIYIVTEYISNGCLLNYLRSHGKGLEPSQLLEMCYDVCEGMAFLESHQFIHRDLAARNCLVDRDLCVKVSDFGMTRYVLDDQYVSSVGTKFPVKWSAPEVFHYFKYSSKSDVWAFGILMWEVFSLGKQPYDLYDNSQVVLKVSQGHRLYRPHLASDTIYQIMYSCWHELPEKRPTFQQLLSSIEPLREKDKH
Text: as §3, §4, §5, §6, §7, §8, §9, §10

[5] = target: EGFR (Homo sapiens, UniProt P00533); assay: scanMAX binding POC, EGFR; conditions: 1 μM
Chain of EGFR (P00533 25-1210): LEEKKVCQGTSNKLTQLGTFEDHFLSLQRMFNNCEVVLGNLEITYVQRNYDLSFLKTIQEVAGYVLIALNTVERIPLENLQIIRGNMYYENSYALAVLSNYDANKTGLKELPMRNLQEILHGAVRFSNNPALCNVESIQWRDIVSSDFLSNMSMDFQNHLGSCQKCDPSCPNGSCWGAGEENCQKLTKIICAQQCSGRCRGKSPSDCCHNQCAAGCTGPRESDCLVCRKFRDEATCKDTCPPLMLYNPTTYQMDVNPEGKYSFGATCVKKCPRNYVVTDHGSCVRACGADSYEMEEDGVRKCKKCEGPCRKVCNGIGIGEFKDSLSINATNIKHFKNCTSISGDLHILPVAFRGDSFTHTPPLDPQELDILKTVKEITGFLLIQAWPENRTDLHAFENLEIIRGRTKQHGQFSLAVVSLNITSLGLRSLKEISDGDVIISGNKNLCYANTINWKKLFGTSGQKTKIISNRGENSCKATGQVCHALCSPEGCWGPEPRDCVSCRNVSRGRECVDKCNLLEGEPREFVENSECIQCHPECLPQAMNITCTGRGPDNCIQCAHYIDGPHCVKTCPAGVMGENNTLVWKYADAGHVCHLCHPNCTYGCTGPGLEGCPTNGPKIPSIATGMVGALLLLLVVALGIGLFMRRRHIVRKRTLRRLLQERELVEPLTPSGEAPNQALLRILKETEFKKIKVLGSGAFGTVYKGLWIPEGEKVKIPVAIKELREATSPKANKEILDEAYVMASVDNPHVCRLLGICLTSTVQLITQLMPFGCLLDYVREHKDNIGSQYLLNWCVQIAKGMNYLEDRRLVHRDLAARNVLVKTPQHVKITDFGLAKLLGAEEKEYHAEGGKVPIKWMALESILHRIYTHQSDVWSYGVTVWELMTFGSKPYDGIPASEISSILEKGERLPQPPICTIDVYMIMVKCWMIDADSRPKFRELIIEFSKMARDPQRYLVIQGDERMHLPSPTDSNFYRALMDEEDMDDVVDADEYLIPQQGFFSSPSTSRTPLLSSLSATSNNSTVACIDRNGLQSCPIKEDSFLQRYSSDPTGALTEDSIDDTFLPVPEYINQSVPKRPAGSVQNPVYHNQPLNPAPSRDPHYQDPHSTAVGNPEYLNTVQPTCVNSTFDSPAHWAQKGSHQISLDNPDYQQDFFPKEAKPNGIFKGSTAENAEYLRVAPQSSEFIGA

[6] = target: ERBB2 (Homo sapiens, UniProt P04626); assay: scanMAX binding POC, ERBB2; conditions: 1 μM
Chain of ERBB2 (P04626 23-1255): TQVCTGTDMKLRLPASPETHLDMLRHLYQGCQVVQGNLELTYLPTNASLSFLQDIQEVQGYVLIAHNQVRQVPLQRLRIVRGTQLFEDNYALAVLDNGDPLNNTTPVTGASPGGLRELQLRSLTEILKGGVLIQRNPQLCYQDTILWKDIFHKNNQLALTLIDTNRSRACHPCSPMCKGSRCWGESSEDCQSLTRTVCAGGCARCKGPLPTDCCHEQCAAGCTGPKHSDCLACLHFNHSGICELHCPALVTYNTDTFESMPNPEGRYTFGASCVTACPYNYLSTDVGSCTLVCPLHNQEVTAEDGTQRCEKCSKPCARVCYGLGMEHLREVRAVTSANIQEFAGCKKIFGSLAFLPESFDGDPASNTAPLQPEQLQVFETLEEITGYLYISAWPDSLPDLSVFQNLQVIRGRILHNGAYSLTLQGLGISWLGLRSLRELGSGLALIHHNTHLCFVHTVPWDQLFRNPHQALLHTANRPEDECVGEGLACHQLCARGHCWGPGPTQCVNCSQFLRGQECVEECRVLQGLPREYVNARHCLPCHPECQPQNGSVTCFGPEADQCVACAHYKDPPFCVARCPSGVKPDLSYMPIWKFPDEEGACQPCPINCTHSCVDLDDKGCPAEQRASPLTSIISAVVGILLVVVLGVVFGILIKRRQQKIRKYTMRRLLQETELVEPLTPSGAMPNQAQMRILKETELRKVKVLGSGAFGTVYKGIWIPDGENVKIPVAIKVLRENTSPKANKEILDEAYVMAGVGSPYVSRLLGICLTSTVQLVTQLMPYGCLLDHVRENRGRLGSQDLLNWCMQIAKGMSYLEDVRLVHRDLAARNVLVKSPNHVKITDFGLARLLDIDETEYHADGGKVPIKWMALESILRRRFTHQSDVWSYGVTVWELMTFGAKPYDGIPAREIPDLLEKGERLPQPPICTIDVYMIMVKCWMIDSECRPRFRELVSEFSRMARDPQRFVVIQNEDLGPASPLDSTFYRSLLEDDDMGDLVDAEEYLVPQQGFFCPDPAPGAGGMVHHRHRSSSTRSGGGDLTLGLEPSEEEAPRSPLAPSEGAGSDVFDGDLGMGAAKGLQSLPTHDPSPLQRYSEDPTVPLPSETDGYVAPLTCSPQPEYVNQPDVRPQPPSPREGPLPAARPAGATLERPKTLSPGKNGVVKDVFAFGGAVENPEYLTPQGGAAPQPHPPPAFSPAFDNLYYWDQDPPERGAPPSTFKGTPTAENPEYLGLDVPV

[7] = target: ERBB3 (Homo sapiens, UniProt P21860); assay: scanMAX binding POC, ERBB3; conditions: 1 μM
Chain of ERBB3 (P21860 20-1342): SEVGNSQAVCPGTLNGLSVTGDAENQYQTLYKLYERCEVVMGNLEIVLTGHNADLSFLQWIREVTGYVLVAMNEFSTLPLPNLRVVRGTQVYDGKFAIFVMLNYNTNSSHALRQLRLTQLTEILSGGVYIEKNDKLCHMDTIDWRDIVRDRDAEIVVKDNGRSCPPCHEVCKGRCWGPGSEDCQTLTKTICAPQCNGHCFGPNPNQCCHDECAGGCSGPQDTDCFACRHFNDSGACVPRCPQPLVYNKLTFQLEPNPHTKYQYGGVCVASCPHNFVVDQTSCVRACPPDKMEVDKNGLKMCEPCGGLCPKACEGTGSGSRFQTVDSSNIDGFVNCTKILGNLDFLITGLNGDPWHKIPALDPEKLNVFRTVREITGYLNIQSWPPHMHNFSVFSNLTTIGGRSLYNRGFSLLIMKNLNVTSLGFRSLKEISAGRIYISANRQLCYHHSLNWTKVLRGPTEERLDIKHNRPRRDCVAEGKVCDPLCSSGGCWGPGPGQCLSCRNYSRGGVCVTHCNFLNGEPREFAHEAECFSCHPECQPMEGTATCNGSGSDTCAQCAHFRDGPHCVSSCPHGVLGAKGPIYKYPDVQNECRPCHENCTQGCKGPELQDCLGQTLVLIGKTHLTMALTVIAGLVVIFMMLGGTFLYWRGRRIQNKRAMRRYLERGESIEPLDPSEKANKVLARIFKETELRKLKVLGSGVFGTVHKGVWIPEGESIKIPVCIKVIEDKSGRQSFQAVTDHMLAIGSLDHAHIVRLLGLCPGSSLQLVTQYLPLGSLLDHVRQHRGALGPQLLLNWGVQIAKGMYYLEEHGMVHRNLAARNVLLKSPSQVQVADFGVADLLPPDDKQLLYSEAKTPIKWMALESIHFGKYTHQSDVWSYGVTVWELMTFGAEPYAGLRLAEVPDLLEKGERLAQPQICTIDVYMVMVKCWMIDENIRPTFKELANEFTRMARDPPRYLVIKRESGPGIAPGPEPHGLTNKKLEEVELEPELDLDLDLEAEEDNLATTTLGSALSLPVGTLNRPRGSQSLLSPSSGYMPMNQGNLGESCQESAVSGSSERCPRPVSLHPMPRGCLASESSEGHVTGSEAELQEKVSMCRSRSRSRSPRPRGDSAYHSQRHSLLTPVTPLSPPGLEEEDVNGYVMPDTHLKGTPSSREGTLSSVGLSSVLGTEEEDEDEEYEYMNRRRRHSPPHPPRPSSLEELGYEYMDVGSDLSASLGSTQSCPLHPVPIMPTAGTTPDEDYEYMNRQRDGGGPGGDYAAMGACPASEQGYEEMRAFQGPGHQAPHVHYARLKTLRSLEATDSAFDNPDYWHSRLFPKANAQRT

[8] = test system: 468 kinases/kinase domains; conditions: scanMAX at 1 μM; for selectivity: category by number of off-targets
Description: The compounds were diluted directly into the assays such that the final concentration of DMSO was 0.9%. No enzyme purification steps were performed on the protein extracts before adding them to the reaction mixture, and the protein extracts were diluted 10,000-fold in the final reaction mixture (the final DNA-tagged enzyme concentration was less than 0.1 nM). Binding assay mixtures were incubated at 25 °C with shaking for 1 h. […] The concentration of wild-type or mutant BTK in the eluates was then determined using quantitative PCR.

[9] = target: BTK; conditions: wild-type BTK; average of literature values; read-out: average published Kd for BTK; cited from earlier work
[10] = target: JNK2 (MAPK9) (Homo sapiens, UniProt P45984); assay: scanMAX binding POC, JNK2; conditions: 1 μM
Chain of JNK2 (MAPK9) (P45984 whole entry): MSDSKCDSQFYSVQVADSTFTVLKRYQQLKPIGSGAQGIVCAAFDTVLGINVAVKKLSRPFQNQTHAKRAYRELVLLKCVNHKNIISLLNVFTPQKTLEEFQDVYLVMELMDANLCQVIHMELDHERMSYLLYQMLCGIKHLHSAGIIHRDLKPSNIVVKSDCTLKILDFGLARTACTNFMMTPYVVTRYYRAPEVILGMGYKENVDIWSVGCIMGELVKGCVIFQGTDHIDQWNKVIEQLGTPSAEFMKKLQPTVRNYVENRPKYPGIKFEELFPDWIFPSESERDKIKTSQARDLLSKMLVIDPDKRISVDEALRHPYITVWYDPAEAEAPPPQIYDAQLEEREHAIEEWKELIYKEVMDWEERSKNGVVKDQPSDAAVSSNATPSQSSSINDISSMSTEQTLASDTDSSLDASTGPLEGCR
Description: The compounds were diluted directly into the assays such that the final concentration of DMSO was 0.9%. No enzyme purification steps were performed on the protein extracts before adding them to the reaction mixture, and the protein extracts were diluted 10,000-fold in the final reaction mixture (the final DNA-tagged enzyme concentration was less than 0.1 nM). Binding assay mixtures were incubated at 25 °C with shaking for 1 h. […] The concentration of wild-type or mutant BTK in the eluates was then determined using quantitative PCR. […] Each assay’s affinity ligand concentration on the magnetic beads has been optimized to ensure that the true thermodynamic Kd values for competitor molecules were measured, as described in detail previously99.
Comparison of BTK inhibitor specificity to c-Jun N-terminal kinases (JNK1-3/MAPKP8-10).
a The percent of control (POC) is the percent of kinase that was competed off its control ligand relative to the positive and negative controls at the screening concentration56. A zero POC signifies that the compound

[11] = test system: 12 human primary cell systems; assay: BioMAP Diversity PLUS Panel; type: cell-based; conditions: for number of biological effects (biomarkers modulated) / number of effects in a non-B cell (non-BT) model: 1 μM; for immunomodulatory activities / tissue remodeling activities / inflammation-related activities / hemostasis/angiogenesis-related activities: biomarker level relative to vehicle control: ↑ increase, ↓ decrease; for inflammation-related activities: ↓↑ both; for hemostasis/angiogenesis-related activities: TF in the 3C model; for antiproliferative effects: cell types affected, concentrations (nM) in brackets; for detectable cytotoxicity: concentrations (nM): ibrutinib 3300, 1100, 370, 120, pirtobrutinib and fenebrutinib 1000, 330, 110, 37, spebrutinib 370, 120, 41, 14
Description: BioMAP Diversity PLUS Panel (Eurofins Discovery, St. Charles, MO) is composed of 12 human primary cell cultures or cocultures. The systems and stimuli have been described previously. Adherent cells were added to 96-well plates, allowed to reach confluence, and incubated for 1 h with the indicated BTK inhibitor or assay control, all dissolved in 0.1% DMSO. The cells were then stimulated with cytokines, agonists, or growth factors and cultured for a minimum of 24 h at 37 °C in 5% CO2. Assay controls included DMSO-only (vehicle control), nonstimulated conditions (negative control), and a positive control test agent (colchicine at 1 μM).
Cell proliferation and viability were measured using 0.1% sulforhodamine B (SRB, Sigma–Aldrich) after fixation with 10% TCA, and reading wells at 560 nm for adherent cells, and using alamarBlue reduction (Bio-Rad) for suspension cells. These biomarkers were previously described by Shah and colleagues.
For each biomarker, the value obtained from the BTK inhibitor-treated samples was divided by the average of 8 DMSO-only controls from the same plate, yielding a ratio that was then transformed to the log10 scale. […] For cytotoxicity, we considered a decrease in the SRB readout greater than 50% (<−0.3 on the log10 scale) significant and excluded from the analysis the corresponding concentrations. The acceptance criteria and quality assurance of the BioMAP experiments have been previously described.

[12] = test system: BTK C481S in TMD8 cells; conditions: IC50 measured in TMD8 cells (not in vitro); read-out: average published IC50 for BTK C481S; cited from earlier work
[13] = ATP-independent in vitro binding, 25 °C, read-out: Kd for wild-type BTK
[14] = category by Kd for wild-type BTK, read-out: potency for BTK
[15] = wild-type BTK, average of N replicates, each in technical duplicate, read-out: average in-house Kd for BTK
[16] = ATP-independent in vitro binding, 25 °C, read-out: Kd for BTK C481S
[17] = N = 1, technical duplicate, read-out: average in-house Kd for BTK C481S
[18] = category by Kd for BTK C481S, read-out: potency for BTK C481S

Structure (SMILES) | Kd [1, 13] | Kd [1, 14] | Kd [1, 15] | Kd [2, 16] | Kd [2, 17] | Kd [2, 18] | BTK binding POC [3] | BMX binding POC [4] | EGFR binding POC [5] | ERBB2 binding POC [6] | ERBB3 binding POC [7] | selectivity [8] | Kd [9] | JNK2 (MAPK9) POC [10] | immunomodulatory activities [11] | tissue remodeling activities [11] | inflammation-related activities [11] | hemostasis/angiogenesis-related activities [11] | antiproliferative effects [11] | detectable cytotoxicity [11] | other results
C=CC(=O)N1CCC[C@@H](c2ccc(C(N)=O)c3[nH]ccc23)C1 [Elsubrutinib] | 2.9 nM | 1 to 10 nM | 2.9 nM | 460 nM | 460 nM | 100 to 1000 nM | 0.1% of control | 20% of control | 90% of control | 73% of control | 74% of control | high (high (≤11 off-targets)) | 3.1 nM | 91% of control |  |  |  |  |  |  | fold difference between in-house and published Kd's ([1]; wild-type BTK): 1.1 fold
C[C@H]1CN(C2COC2)CCN1c1ccc(Nc2cc(-c3ccnc(N4CCn5c(cc6c5CC(C)(C)C6)C4=O)c3CO)cn(C)c2=O)nc1 [Fenebrutinib] |  |  |  |  |  |  |  |  | 95% of control | 97% of control | 78% of control |  |  | 100% of control | ↓ sIgG, sIL-2, sIL-6 | none | ↓ sTNFα, IL-1α | ↑ TF | B cells (1000, 330, 110, 37) | none | number of biological effects (biomarkers modulated) [11]: 8; number of effects in a non-B cell (non-BT) model [11]: 3; hemostasis/angiogenesis-related activities ([11]; listed as fenebrutinib): increase in the production of Tissue Factor (TF); IC50 [12]: 7.8 nM
O=C(c1ccc(Oc2ccccc2)cc1Cl)c1c[nH]c2ncnc(N[C@@H]3CC[C@@H](CO)OC3)c12 [Nemtabrutinib] |  |  |  |  |  |  | 0.6% of control | 8.5% of control | 0% of control | 0% of control | 0.9% of control |  | 46 nM | 100% of control |  |  |  |  |  |  | off-target hits ([8]; POC <35): 97
COc1ccc(F)cc1C(=O)NCc1ccc(-c2nn([C@@H](C)C(F)(F)F)c(N)c2C(N)=O)cc1 [Pirtobrutinib] | 0.81 nM | < 1 nM | 0.81 nM | 0.89 nM | 0.89 nM | < 1 nM | 0% of control | 51% of control | 0.5% of control | 5.9% of control | 97% of control | moderate (moderate (12–50 off-targets)) | 0.9 nM | 94% of control | ↓ sIL-17A, sIL-17F, sIL-2, sIL-6 | none | ↓ sTNFα, IL-1α | none | B cells (1000, 330, 110, 37) | none | fold difference between in-house and published Kd's ([1]; wild-type BTK): 1.1 fold; fold difference between in-house and published Kd ([2]; BTK C481S): 2.9 fold; number of biological effects (biomarkers modulated) [11]: 7; number of effects in a non-B cell (non-BT) model [11]: 1; IC50 [12]: 4 nM
C=CC(=O)Nc1cccc(Oc2nc(Nc3ccc(N4CCN(C)CC4)cc3)nc3ccoc23)c1 [Poseltinib] | 1.5 nM | 1 to 10 nM | 1.5 nM | > 1000 nM | > 1000 nM | > 1000 nM | 0.1% of control | 12% of control | 1.2% of control | 8.7% of control | 97% of control | moderate (moderate (12–50 off-targets)) |  | 100% of control |  |  |  |  |  |  | Kd for BTK C481S ([2]; ATP-independent in vitro binding, 25 °C): did not demonstrate any binding at the concentrations tested
C=CC(=O)Nc1cccc(Nc2nc(Nc3ccc(OCCOC)cc3)ncc2F)c1 [Spebrutinib] |  |  |  |  |  |  | 0% of control | 10% of control | 49% of control | 57% of control | 83% of control |  |  | 8.4% of control | ↓ sIL-17A, sIL-2, sIL-6 | ↓ PAI-1, Col-I, Col-IV | ↓ sTNFα | none | B cells (370, 120, 41, 14); endothelial cells (370); CASM cells (370); fibroblast cells (370) | none | number of biological effects ([11]; 370 nM): 11; number of effects not in the BT model ([11]; 370 nM): 6; tissue remodeling activities ([11]; listed as spebrutinib): decreased the activity of tissue remodeling biomarkers; antiproliferative effects ([11]; listed as spebrutinib): antiproliferative effects in endothelial (3C), coronary artery smooth muscle (CASM), and fibroblast (HDF3CGF) cells; also recorded: antiproliferative activity in CASM cells
